Results on 1 compound are retold here after EP4159743A1, “METHODS FOR PREPARING PYRIDAZINE COMPOUNDS” (ETH Zurich, priority 2021, dated 2023).

The data set can be described thus: Kinetics measurements, control sample: decrease in absorption of the tetrazine alone over time. It is filed as physicochemical. The conditions noted are these: absorption at 525 nm monitored over time, trypsin buffer. Here is the method:
For kinetic measurements, 196 µL trypsin buffer was added with 2 µL of a 10 mM stock solution of compound 1 in DMSO (final concentration 100 µM) and 2 µL of a 10 mM stock solution of 3,6-di-2-pyridyl-1,2,4,5-tetrazine in DMSO (final concentration 100 µM) in a quartz cuvette. The sample was mixed well and absorption at 525 nm was monitored over time, measuring every minute. Measurements were done in triplicates. […] This was subtracted from the kinetic measurements. The obtained absorbance values were converted to concentrations through a standard curve and were plotted as the reciprocal concentration of the tetrazine reagent versus time to yield a second-order rate constant. Data analysis and statistical analysis were done in Microsoft Excel (2016) and Prism 7 (GraphPad).

SMILES strings stand for the structures.

As for `c1ccc(-c2nnc(-c3ccccn3)nn2)nc1` [3,6-di-2-pyridyl-1,2,4,5-tetrazine], the “rate constant (decrease in absorption over time, fitted to a first-order reaction equation)” value worked out at 2.96e-05 s⁻¹.
